Patent US20260325519A1, “METHOD AND PHARMACEUTICAL COMPOSITION FOR USE IN THE TREATMENT OF FOCAL CORTICAL DYSPLASIA” (priority 2023, published 2026)

Legend:
[1] = tested on: acute cortical slices from a patient with FCD; experiment: Recurrent epileptiform discharges (LFP) in human acute slice from surgically resected FCD; assay type: cell-based; details: 5 μM UBP 310, 50 μM 4-AP and 5 μM gabazine
Method: Cortical slices from patients with drug-resistant epilepsy Acute and cultured slices at 350 μm thickness were prepared from surgical cortical resections from patient diagnosed with drug-resistant epilepsy (AP-HM, Hôpital de La Timone, Marseille, France; CHU Pellegrin, Bordeaux, France) as previously described (Le Duigou et al., 2018). At DIV 1, a subset of cultured slices were transduced with AAV9 with antigrik2 miRNA applied directly to slices (4E+10 per slice).
Prior to recordings, rat or human acute slices were transferred in oxygenated normal cerebrospinal fluid (ACSF) at room temperature (>1 hour). The ACSF contained (in mM, Sigma-Aldrich): 126 NaCl, 3.5 KCl, 1.2NaH2PO4, 26 NaHCO3, 1.3 MgCl2, 2.0 CaCl2 , and 10 glucose (pH 7.4). For electrophysiological recordings, cortical slices were individually transferred to a recording chamber maintained at 30-32 °C and continuously perfused (2-3 ml/min) with oxygenated (95% O2 and 5% CO2) ACSF containing either 5 μM gabazine, or 5 μM gabazine and 50 μM 4-AP in rats and human tissues, respectively. Spontaneous recurrent epileptiform discharges were recorded as local field potentials as previously described (Peret et al., 2014).
All statistical analyses were performed using Prism 6 (Graphpad). Normality of the data distributions was systematically tested using a Shapiro-Wilk test. […]

[2] = tested on: neocortical acute slices from rats with FCDII; experiment: Spontaneous recurrent epileptiform discharges (LFP) in acute neocortical slices from adult FCD rats; assay type: cell-based, rat (Wistar); details: 5 μM gabazine
Method: Our study takes advantage of a rat model of FCD developed in our laboratory (Pelorosso et al 2019) by in utero electroporation of a gain of function mutation of mTOR (MTOR c.6644C>T p.S2215F), that has been found in different FCD patients (Baldassari et al 2019). Rats were housed in cages with ad libitum food/water, controlled temperature (21-23 °C) and 12:12 h light-dark cycle (light period from 8 A.M. to 8 P.M.).
Plasmid electroporations were performed with either wild type (WT) or mutant mTOR expression vectors (pCAG-MTOR WT-IRES-GFP or pCAG-MTOR p.S2215F, respectively, 3.0 μg/μL each), or with non-recombinant vector (pCAG-IRES-GFP; 0.5 μg/μL). All constructs were generated by Genscript (Piscataway, NJ) as described before (Pelorosso et al 2019) and were checked by Sanger sequencing.
Timed pregnant Wistar rats (Janvier Labs, Le Genest-Saint-Isle, France) received buprenorphine at 0.03 mg/kg and were anesthetized with sevoflurane (4%) 30 min later. […]
Prior to recordings, rat or human acute slices were transferred in oxygenated normal cerebrospinal fluid (ACSF) at room temperature (>1 hour). […] Spontaneous recurrent epileptiform discharges were recorded as local field potentials as previously described (Peret et al., 2014). […]

[3] = tested on: acute cortical slices from a patient with FCD; experiment: Field EPSP (fEPSP) evoked by electrical stimulation in human acute slice from surgically resected FCD; assay type: cell-based; details: 5 μM UBP 310
[4] = acute cortical slices from a patient with FCD
[5] = human acute slice from resected FCD, in words

## Cc1cn(C[C@H](N)C(=O)O)c(=O)n(Cc2ccsc2C(=O)O)c1=O [UBP 310]
[1]; [4]
  reduction of the frequency of spontaneous recurrent epileptiform discharges: around 70%
[1]; [5]
  reduction of the number of epileptiform discharges: strong reduction
[2]; 5 μM UBP 310, bath application, acute neocortical slice from adult FCD rat, n=7 slices from 4 FCD rats, Wilcoxon p=0.0156
  reduction in the number of epileptiform discharges: around 46%
[2]; 5 μM UBP 310, neocortical acute slices from rats with FCDII
  reduction in the frequency of spontaneous recurrent epileptiform discharges: around 46%
[3]; [4]
  reduction of the amplitude of evoked field EPSP (fEPSP): approximately 50%
[3]; [5]
  fEPSP evoked by electrical stimulation: strongly reduced
